# From ChEMBL document CHEMBL5608232, “Novel Glucagon-like Peptide 1 Receptor Agonists for Treating Type II Diabetes” (ACS Med Chem Lett, 2024)
# Target: Glucagon-like peptide 1 receptor (Homo sapiens, UniProt P43220)
# Experiment: Agonist activity at human GLP-1R expressed in HEK293 cells assessed as increase in intracellular cAMP level incubated for 30 mins by HTRF assay
# Format: functional, cell-based
# Glucagon-like peptide 1 receptor, sequence (P43220 whole entry): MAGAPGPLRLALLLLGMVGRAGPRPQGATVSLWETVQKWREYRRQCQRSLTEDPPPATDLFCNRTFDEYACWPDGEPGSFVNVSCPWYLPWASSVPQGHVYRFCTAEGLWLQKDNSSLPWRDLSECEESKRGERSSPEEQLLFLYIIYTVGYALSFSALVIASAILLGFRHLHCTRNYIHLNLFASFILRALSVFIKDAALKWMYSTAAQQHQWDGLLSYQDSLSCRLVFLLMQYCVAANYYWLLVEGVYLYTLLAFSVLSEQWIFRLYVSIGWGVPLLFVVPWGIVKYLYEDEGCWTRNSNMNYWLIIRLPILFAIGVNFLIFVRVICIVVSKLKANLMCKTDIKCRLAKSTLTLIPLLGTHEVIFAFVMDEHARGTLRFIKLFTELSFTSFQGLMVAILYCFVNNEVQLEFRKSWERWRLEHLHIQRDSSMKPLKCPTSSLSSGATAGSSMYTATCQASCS
row,SMILES,EC50 [pM]
1,COc1cc(C(=O)O)cc2c1nc(Cc1cc(F)c(-c3cccc(OCc4ccc(C#N)cc4C)n3)cc1F)n2C[C@@H]1CCO1,300
2,COCCOc1cc(C(=O)O)cc2c1nc(Cc1cc(F)c(-c3cccc(OCc4ccc(C#N)cc4F)n3)cc1F)n2C[C@@H]1CCO1,297
3,COc1cc(C(=O)O)cc2c1nc(Cc1cc(C)c(-c3cccc(OCc4ccc(C#N)cc4F)n3)cc1F)n2C[C@@H]1CCO1,291
4,COc1cc(C(=O)O)cc2c1nc(Cc1cc(F)c(-c3cccc(OCc4ccc(C#N)cc4F)n3)cc1F)n2C[C@@H]1CCO1,221
5,COc1cc(C#N)ccc1COc1cccc(-c2cc(F)c(Cc3nc4c(OC)cc(C(=O)O)cc4n3C[C@@H]3CCO3)cc2F)n1,167
6,COc1cc(C(=O)O)cc2c1nc(Cc1cc(F)c(-c3cccc(OCc4ccc(-n5cncn5)cc4)n3)cc1F)n2C[C@@H]1CCO1,402
